Test results taken from PMC4823711, “Allosteric Partial Inhibition of Monomeric Proteases. Sulfated Coumarins Induce Regulation, not just Inhibition, of Thrombin” (Scientific Reports, 2016).
pIC50, pKd: −log10 of the molar value. “Also recorded” adds a separate entry of the source.

Columns and labels:
thrombin [1] = target: thrombin (Homo sapiens, UniProt P00734); assay: Chromogenic substrate hydrolysis assay, thrombin inhibition (Spectrozyme TH); type: biochemical; set-up: 6 nM plasma α-thrombin; purchased Haematologic Technologies (Essex Junction, VT); settings: for thrombin inhibition (in words): up to 250 μM; for efficacy of thrombin inhibition (ΔY) / pIC50: pH 7.4, 25 °C; for efficacy of thrombin inhibition (ΔY): at saturation; for pIC50: read-out: IC50 against thrombin
Procedure: Chromogenic substrate hydrolysis assay was used to measure potency of inhibition, as previously reported. The assay was performed using Flexstation III (Molecular Devices, Sunnyvale, CA) by monitoring substrate hydrolysis at 405 nm. For thrombin and its mutants, 180 μL of buffer (20 mM Tris-HCl, 100 mM NaCl, 2.5 mM CaCl2, 0.1% (polyethylene glycol) PEG 8000, pH 7.4) was added to each well followed by 5 μL of 240 nM thrombin and 10 μL of sulfated coumarin in DMSO to give 0.002 to 250 μM final concentration (or 10 μL of DMSO alone). After incubation for 10 min at 25 °C, 5 μL of 2 mM Spectrozyme TH was added to each well simultaneously and allowed to react for 60 seconds at 25 °C while simultaneously monitoring the reaction to obtain the rate of increase in A405. Identical experimental conditions were used for reactions in the presence of antithrombin, except for 100 nM of antithrombin added prior to the addition of the substrate.
For factor XIa inhibition studies, 85 μL of buffer (50 mM Tris-HCl, 150 mM NaCl, 0.1% PEG 8000, 0.02% Tween 80, pH 7.4) was added to each well, followed by 7 μL of 15.3 nM enzyme and 3 μL of sulfated coumarin (3.75–500 μM final concentration) and incubated for 10 min at 37 °C. After the incubation period, 5 μL of 6.9 mM S-2366 was added to each well simultaneously and allowed to react for 300 sec at 37 °C. For factor Xa assay, 180 μL of buffer (20 mM Tris-HCl, 100 mM NaCl, 2.5 mM CaCl2, 0.1% PEG 8000, 0.02% Tween 80, pH 7.4) was added to each well followed by 5 μL of 43.5 nM enzyme, 10 μL of sulfated coumarin (0.002–250 μM final concentration). After a 10 min incubation, 5 μL of 5 mM Spectrozyme FXa was added to each well simultaneously and allowed to react for 300 seconds at 37 °C. The slopes generated from each experiment were used to calculate the fractional residual activity (Y) at each concentration of the inhibitor, and analyzed using logistic equation 1, in which YM is the maximum efficacy, Y0 is minimum efficacy and HS is the Hill slope.

thrombin [2] = settings: cited from earlier work; for efficacy of thrombin inhibition (ΔY): orthosteric inhibitors
thrombin [3] = target: thrombin; set-up: method as in PMID 2007587; settings: read-out: affinity for thrombin; cited from earlier work

Q: For `O=c1oc2cc(OS(=O)(=O)O)ccc2c(-c2ccccc2)c1-c1ccccc1Cl` [2d], which “thrombin inhibition (in words)” value (thrombin [1]) is on record?
A: not all 4-aryl derivatives were active

Q: With `O=c1oc2cc(OS(=O)(=O)O)ccc2c(-c2ccccc2)c1-c1cccc(Cl)c1` [2e] as the molecule, how does the “thrombin inhibition (in words)” value (thrombin [1]) read?
A: active

Q: For `O=c1oc2cc(OS(=O)(=O)O)ccc2c(-c2ccccc2)c1-c1ccc(Cl)cc1Cl` [2k], which “thrombin inhibition (in words)” value (thrombin [1]) is on record?
A: active

Q: With `O=c1oc2ccc(OS(=O)(=O)O)cc2c(-c2ccccc2)c1-c1ccc(Cl)cc1` [2l] as the molecule, how does the “thrombin inhibition (in words)” value (thrombin [1]) read?
A: not all 4-aryl derivatives were active

Q: With `O=c1oc2cc(OS(=O)(=O)O)ccc2c(-c2ccccc2)c1-c1ccc(Br)cc1` [2o] as the molecule, how does the “thrombin inhibition (in words)” value (thrombin [1]) read?
A: not all 4-aryl derivatives were active

Q: Which “thrombin inhibition (in words)” value (thrombin [1]) does the source give for `O=c1oc2cc(OS(=O)(=O)O)ccc2c(Cc2ccc(Cl)cc2)c1-c1ccccc1` [2p] here?
A: active

Q: Which “thrombin inhibition (in words)” value (thrombin [1]) does the source give for `O=c1oc2cc(OS(=O)(=O)O)ccc2c(-c2ccccc2)c1-c1ccc(O)c(OS(=O)(=O)O)c1` [2w] here?
A: not all 4-aryl derivatives were active

Q: For `O=c1oc2c(Cl)cc(Cl)cc2c(-c2ccccc2)c1-c1ccc(OS(=O)(=O)O)cc1` [2x], which “thrombin inhibition (in words)” value (thrombin [1]) is on record?
A: not all 4-aryl derivatives were active

Q: Which “thrombin inhibition (in words)” value (thrombin [1]) does the source give for `O=c1oc2cc(OS(=O)(=O)O)ccc2c(-c2ccccc2)c1-c1ccc(OS(=O)(=O)O)cc1` [2y] here?
A: not all 4-aryl derivatives were active; also recorded: complete absence of inhibition potential

Q: With `O=c1oc2cc(OCCCn3cc(COc4ccc5c(-c6ccccc6)c(-c6ccc(OS(=O)(=O)O)cc6)c(=O)oc5c4)nn3)ccc2c(-c2ccccc2)c1-c1ccc(OS(=O)(=O)O)cc1` [3a] as the molecule, how does the “efficacy of thrombin inhibition (ΔY)” value (thrombin [1]) read?
A: 73%

Q: What about the pIC50 (thrombin [1]) of the same molecule?
A: ≥ 6.00

Q: For `O=c1oc2cc(OCCCCn3cc(COc4ccc5c(-c6ccccc6)c(-c6ccc(OS(=O)(=O)O)cc6)c(=O)oc5c4)nn3)ccc2c(-c2ccccc2)c1-c1ccc(OS(=O)(=O)O)cc1` [3b], which “efficacy of thrombin inhibition (ΔY)” value (thrombin [1]) is on record?
A: 58%

Q: And the pIC50 (thrombin [1])?
A: ≥ 6.00

Q: With `O=c1oc2cc(OCCCn3cc(COc4ccc5cc(-c6ccc(OS(=O)(=O)O)cc6)c(=O)oc5c4)nn3)ccc2cc1-c1ccc(OS(=O)(=O)O)cc1` [3c] as the molecule, how does the “efficacy of thrombin inhibition (ΔY)” value (thrombin [1]) read?
A: 60%

Q: For `CC1CNc2c(cccc2S(=O)(=O)N[C@@H](CCCNC(=N)N)C(=O)N2CC[C@@H](C)C[C@@H]2C(=O)O)C1` (stereo partly shown) [argatroban], which “efficacy of thrombin inhibition (ΔY)” value (thrombin [2]) is on record?
A: 100%

Q: With `[H]/N=C(/N)c1ccc(NCc2nc3cc(C(=O)N(CCC(=O)O)c4ccccn4)ccc3n2C)cc1` [dabigatran] as the molecule, how does the “efficacy of thrombin inhibition (ΔY)” value (thrombin [2]) read?
A: 100%

Q: With `Cc1ccc(C(=O)Nc2ccc(S(=O)(=O)O)c3cc(S(=O)(=O)O)cc(S(=O)(=O)O)c23)cc1NC(=O)c1cccc(NC(=O)Nc2cccc(C(=O)Nc3cc(C(=O)Nc4ccc(S(=O)(=O)O)c5cc(S(=O)(=O)O)cc(S(=O)(=O)O)c45)ccc3C)c2)c1` [suramin] as the molecule, how does the pIC50 (thrombin [2]; read-out: IC50 of thrombin inhibition) read?
A: 4.40 to 4.70

Q: Which “thrombin inhibition (in words)” value (thrombin [2]) does the source give for Heparin hexasaccharide here?
A: not an inhibitor

Q: What about the pKd (thrombin [3]) of the same molecule?
A: ~5.10
